Read-outs that look alike come from different tables or passages of the source.
Key:
[1] = Neutral fraction at pH 7.4 calculated from pKa; assay type: physicochemical
[2] = rat
[3] = rat; remark: listed apart in the source
[4] = cited from earlier work
[5] = rat, in vivo; cited from earlier work
[6] = cited from earlier work; remark: listed apart in the source
[7] = molecular target: T1, GLUT1 (Rattus norvegicus, UniProt P11167); assay: In situ brain perfusion, facilitated nutrient transport by GLUT1; assay type: in vivo; conditions: facilitated nutrients
T1 construct: from tissue; host or cells: brain vascular endothelium (BBB) of the in situ perfused brain
T1 sequence (P11167 1-492): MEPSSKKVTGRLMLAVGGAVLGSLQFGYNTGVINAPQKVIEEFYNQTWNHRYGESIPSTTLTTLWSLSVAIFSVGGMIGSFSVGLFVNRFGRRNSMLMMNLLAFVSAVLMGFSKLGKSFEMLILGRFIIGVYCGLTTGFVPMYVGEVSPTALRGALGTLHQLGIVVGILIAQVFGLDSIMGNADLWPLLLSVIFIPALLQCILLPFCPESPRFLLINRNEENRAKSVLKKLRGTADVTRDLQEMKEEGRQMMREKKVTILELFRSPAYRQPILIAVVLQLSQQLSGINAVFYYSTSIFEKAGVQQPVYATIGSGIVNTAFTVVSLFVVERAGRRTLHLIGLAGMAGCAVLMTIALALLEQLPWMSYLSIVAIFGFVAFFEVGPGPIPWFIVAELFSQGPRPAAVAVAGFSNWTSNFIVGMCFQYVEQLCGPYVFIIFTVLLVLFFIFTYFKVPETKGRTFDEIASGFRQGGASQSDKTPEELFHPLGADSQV

[8] = pH 7.4
[9] = molecular target: MCT8 L-T3 Transporter (Rattus norvegicus, UniProt Q8K1P8)
[10] = ref Fenstermacher (papers of the 1990s and 2000s); cited from earlier work
[11] = in vivo; conditions: rat, pH 7.4
[12] = rat in vivo measurements; cited from earlier work
[13] = molecular target: T2, MAT1 (Rattus norvegicus, UniProt P53987); conditions: facilitated nutrients, MAT1, S 30 s
T2 sequence (P53987 1-494): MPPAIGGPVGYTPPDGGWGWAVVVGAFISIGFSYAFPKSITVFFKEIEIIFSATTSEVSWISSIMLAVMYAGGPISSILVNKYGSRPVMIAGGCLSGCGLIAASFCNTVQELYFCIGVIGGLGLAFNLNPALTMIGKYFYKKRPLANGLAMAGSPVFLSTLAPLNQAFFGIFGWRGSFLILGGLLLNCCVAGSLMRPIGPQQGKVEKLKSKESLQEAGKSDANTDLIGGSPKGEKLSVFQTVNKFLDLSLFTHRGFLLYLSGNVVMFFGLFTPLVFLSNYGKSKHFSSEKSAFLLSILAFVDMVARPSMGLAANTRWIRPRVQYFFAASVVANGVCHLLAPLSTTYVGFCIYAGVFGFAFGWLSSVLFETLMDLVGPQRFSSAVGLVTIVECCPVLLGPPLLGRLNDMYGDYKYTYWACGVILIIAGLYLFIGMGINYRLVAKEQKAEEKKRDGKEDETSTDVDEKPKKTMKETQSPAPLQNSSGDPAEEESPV

[14] = Octanol/water partition and distribution coefficients; conditions: octanol distribution coefficient, pH 7.4
[15] = ref Chou and Rowland [106]; cited from earlier work
[16] = neutral fraction at perfusion fluid pH 7.40, calculated from pKa

Sequence of MCT8 L-T3 Transporter (Q8K1P8 whole entry): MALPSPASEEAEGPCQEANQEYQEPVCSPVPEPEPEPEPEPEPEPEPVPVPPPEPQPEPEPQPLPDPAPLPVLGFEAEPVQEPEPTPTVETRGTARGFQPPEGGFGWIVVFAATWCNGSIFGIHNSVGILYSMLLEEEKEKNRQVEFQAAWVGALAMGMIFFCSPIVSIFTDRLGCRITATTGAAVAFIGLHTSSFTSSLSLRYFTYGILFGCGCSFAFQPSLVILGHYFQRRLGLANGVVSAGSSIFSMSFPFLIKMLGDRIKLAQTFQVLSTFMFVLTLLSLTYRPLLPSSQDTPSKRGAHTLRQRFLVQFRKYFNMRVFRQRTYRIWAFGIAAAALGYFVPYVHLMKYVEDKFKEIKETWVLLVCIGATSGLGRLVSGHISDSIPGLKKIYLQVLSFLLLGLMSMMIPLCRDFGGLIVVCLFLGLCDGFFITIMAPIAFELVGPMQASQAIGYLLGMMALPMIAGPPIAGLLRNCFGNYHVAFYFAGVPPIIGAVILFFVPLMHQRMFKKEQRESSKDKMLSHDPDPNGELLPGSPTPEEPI

## CCC1(CC)C(=O)NC(=O)NC1=O [Barbital]
[1]; [16]
  fn (%): 79.9%
[2]
  half-life: 3.63 min
[2]; plasma
  half-life: 3.6 min
[3]; in vivo, pH 7.4
  Log Pc: −4.42
  Log PoS: −2.32
  Pc: 38.1 ×10⁻⁶ cm/s
  PcS: 0.0038 mL/s/g
  PoS: 0.00477 mL/s/g
  Log Po: −4.32
  Po: 47.7 ×10⁻⁶ cm/s
[4]; octanol partition coefficient, ref Hansch et al. [123], Avdeef [46] or other sources
  Log Poct: 0.65
[4]; ref Hansch et al. [123], Avdeef [46] or other sources
  Log Doct pH=7.4: 0.64
[5]
  Brain Equilibration t1/2, Measured: 3.27 min
[6]; rat in vivo measurements
  fu,.p: 0.985

## OC[C@H]1OC(O)[C@H](O)[C@@H](O)[C@@H]1O (stereo partly drawn) [D-Glucose]
[7]; GLUT1
  Log PS: −2.16
[7]; GLUT1, S 16 s
  PS: 0.00694 mL/s/g
[8]
  Log Doct 7.4: −1.88

## N[C@@H](Cc1cc(I)c(Oc2ccc(O)c(I)c2)c(I)c1)C(=O)O [L-T3]
[9]
  PS: 0.0146 mL/s/g

## Cc1cc(=O)n(-c2ccccc2)n1C [Antipyrine]
[1]; [16]
  fn (%): 100%
[2]; brain
  half-life: 0.93 min
Calculated at brain blood flow […] and rat serum fu
  Brain Kin: 0.0143 mL/s/g
Calculated at brain blood flow […], free drug
  Extraction (unbound): 62.7%
Calculated at brain blood flow […], with rat serum fu
  Brain vascular extraction (total): 59.7%
[10]
  brain vascular PS: 0.02 to 0.025 mL/s/g
[11]
  half-life: 1 min
[6]; rat in vivo measurements
  fu,.p: 0.92
[12]
  Brain Vu,br: 1.25 mL/g

## L-Lactate
[13]
  PS: 0.00125 mL/s/g
[14]
  Log Doct 7.4: −0.70

## CN1C(=O)CN=C(c2ccccc2)c2cc(Cl)ccc21 [Diazepam]
[1]; pH 7.4
  fn (%): 100%
[15]
  PS for liver membrane: 0.4 mL/s/g

## OCCO [Ethylene glycol]
[1]; pH 7.4
  fn (%): 100%
[3]
  E of permeability markers: 2–4%
[3]; in vivo
  BBB PS / PoS over the flow range: 4 - 7x 10^-4
  Log Pc: −5.24
  Log PoS: −3.24
  PS Average used for normalization: 0.0006 mL/s/g
  Pc: 5.69 ×10⁻⁶ cm/s
  PcS: 0.00057 mL/s/g
  PoS: 0.000569 mL/s/g
  PoS, flow-corrected: 3–6 10^–4 mL/s/g
  Log Po: −5.24
  Po: 5.69 ×10⁻⁶ cm/s
plasma
  Brain Equilibration t1/2, Calculated: 21 min
[4]
  Log Doct pH=7.4: −1.36
[5]
  Brain Equilibration t1/2, Measured: 17 min
[6]; rat
  fu,.p: 1.00

— publication PMC11650849, “Brain endothelial permeability, transport, and flow assessed over 10 orders of magnitude using the in situ brain perfusion technique” (Fluids and Barriers of the CNS, 2024)
